The results in this text go back to patent US20260335272A1, “SAGERINIC ACID AND COMPOSITIONS CONTAINING SAME, FOR USE IN THE PREVENTION AND/OR TREATMENT OF SENESCENCE-RELATED DISORDERS IN A HUMAN OR ANIMAL” (A2P SCIENCES, priority 2022, published 2026).

SMILES strings stand for the structures.

The nature of assay [1]: DPPH free radical elimination (anti-radical / oxidative stress effect). It is filed as physicochemical. As to conditions: for Activity (elimination of DPPH free radical): antioxidant solution 0.0007% (ascorbic acid in ethyl alcohol, sagerinic acid in water), 0.15 ml in 4.5 ml, phosphate buffer pH 7, 5 min, OD at 519 nm. Here is the method: The principle of the method for assessing the effect of sagerinic acid compared to ascorbic acid as a reference molecule is based on the elimination of a stable free radical, the 2,2-Diphenyl-1-picrylhydrazyl (DPPH Sigma Aldrich ref D9132).
Dissolve 0.177 g monopotassium phosphate and 0.730 g dibasic sodium phosphate dihydrate in 50 ml purified water. The pH is adjusted if necessary.
A solution of exactly 0.0027% (w/V) DPPH in methanol is made.
A solution of exactly 0.1% (w/V) ascorbic acid (Riedel-de-Haen, ref.33034) is made in ethyl alcohol. This solution is diluted to 0.0007% (V/V) in ethyl alcohol.
A solution of exactly 0.1% (w/V) sagerinic acid (prepared according to example 5.1.) is made in water. This solution is diluted to 0.0007% (V/V) in water.
(§1) A series of hermetically sealed pillboxes are filled with:
For the sample and the blank: • After addition, stir for 5 min on a magnetic stirrer • Add 4 ml toluene • Stir for 30 seconds with a magnetic stirrer • Allow to settle for 20 seconds to 1 minute (if necessary) • Recover the organic phase from the top using an automatic pipette, taking care not to recover any aqueous phase • Read the OD of the organic phase using a spectrophotometer at 519 nm
(In general: DPPH is a stable violet radical that fades when it is reduced.)

Assay [2] can be described thus: Protein deglycating activity: release of benzoic acid from 1-phenyl-1,2-propanedione (PPD), HPLC. As to conditions: for Activity (protein deglycating activity): 0.25% (w/V) product, 0.375% (w/V) PPD, 37 °C, 24 hours, phosphate buffer pH 7.4-methanol 50/50, benzoic acid by HPLC at 229 nm. The protocol:
The test products in 0.25% (w/V) solution are left in contact with a 0.375% (w/V) solution of 1-phenyl-1,2-propanedione (PPD) for 24 hours at 37 °C. An HPLC dosing, at 229 nm after passage through an Ascentis® Express C18 column, was carried out at TO and again after 24 hours so as to determine the benzoic acid content. Calculating the percentage of pmol of benzoic acid/μmol of PPD in the reaction medium determines the activity of the deglycants.
Dissolve 0.178 g monopotassium phosphate and 0.955 g dibasic sodium phosphate dihydrate in 100 ml purified water. The pH is adjusted if necessary.
A mixture is made with 50 ml phosphate buffer pH 7.4 and 50 ml methanol.
A solution of exactly 0.375% (w/V) PPD is made in the mixture buffer phosphate pH 7.4—methanol (50/50).
A solution of approximately 0.25% (w/V) of the product to be tested is made in the mixture buffer phosphate pH 7.4—methanol (50/50).
Product to be tested: Alagebrium chloride (MedChem Express, ref. HY-106024B), Sagerinic acid (prepared according to example 5.1.).
A stock solution of approximately 0.08% (w/V) benzoic acid is made in ethyl alcohol. This solution is diluted 1:10 (V/V) in purified water (D).
(D) is then diluted 1:5, 2:5, 3:5 and 4:5 (V/V) in purified water. (D1, D2, D3 and D4).
A linear calibration line was established: area of the benzoic acid peak, with a retention time of 9.17 min and observed at 229 nm, as a function of the concentration in % (w/V).
as §1
Stir after each addition.
0.05 ml is taken from each pillbox to measure the benzoic acid content at TO. The pillboxes are resealed and placed in an oven at 37 °C for a minimum of 21 to a maximum of 24 hours.
The same volume will be taken for dosing on leaving the oven.
The time at 37 °C must be exactly the same for the control and all the tests, so they are prepared as they go along.
The 0.05 ml samples are diluted 1:5 (V/V) in purified water, i.e. by adding 0.2 ml. […]
The % of pmol of benzoic acid/μmol of PPD in the reaction medium is calculated: • TT0×10000×100/122.12×12.655 […]

In assay [3] the target is T1, SIRT1 (Homo sapiens, UniProt Q96EB6).
T1 construct: fluorogenic deacetylation assay
T1 sequence (Q96EB6 1-747): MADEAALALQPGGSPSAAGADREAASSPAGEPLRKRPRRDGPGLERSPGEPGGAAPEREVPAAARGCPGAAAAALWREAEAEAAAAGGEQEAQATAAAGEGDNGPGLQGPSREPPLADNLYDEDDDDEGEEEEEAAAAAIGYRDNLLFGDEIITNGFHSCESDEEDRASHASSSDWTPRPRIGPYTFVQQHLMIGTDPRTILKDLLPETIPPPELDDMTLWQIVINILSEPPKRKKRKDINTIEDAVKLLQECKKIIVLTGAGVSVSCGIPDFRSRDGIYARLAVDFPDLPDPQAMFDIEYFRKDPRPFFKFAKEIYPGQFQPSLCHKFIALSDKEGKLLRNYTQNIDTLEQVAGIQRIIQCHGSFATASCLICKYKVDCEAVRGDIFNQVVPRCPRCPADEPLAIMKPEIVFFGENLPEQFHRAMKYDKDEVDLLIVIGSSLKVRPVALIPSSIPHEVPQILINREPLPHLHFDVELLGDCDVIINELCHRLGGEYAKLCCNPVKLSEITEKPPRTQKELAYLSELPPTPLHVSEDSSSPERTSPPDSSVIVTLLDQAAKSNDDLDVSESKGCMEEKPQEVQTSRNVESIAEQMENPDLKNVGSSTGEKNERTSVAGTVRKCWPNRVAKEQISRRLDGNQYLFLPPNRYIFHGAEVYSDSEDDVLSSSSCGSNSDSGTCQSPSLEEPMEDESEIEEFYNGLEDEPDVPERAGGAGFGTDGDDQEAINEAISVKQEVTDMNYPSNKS
Put plainly: SIRT1 Inhibitor/Activator screening kit (ab283377), fluorimetric sirtuin-1 activation. It is filed as biochemical. Conditions: for Activity (activation of sirtuin-1): 2.28% (w/V) activator in DMSO diluted 1:250 in DTT buffer, 25 μl, 37 °C, 30-60 min, Ex/Em=400/505 nm. The source says: The SIRT1 Inhibitor/Activator screening kit deacetylates the substrate with SIRT1, followed by cleavage of the deacetylated substrate to release the fluorescent group, which is detected by fluorimetry at Ex/Em=400/505 nm.
The SIRT1 activator enhances the SIRT1 activity resulting in a higher fluorescent signal compared to the control. This kit provides a rapid, simple, sensitive and reliable test, suitable for high-throughput screening of SIRT1 activators.
• Solutions of the kit: Reference ab283377 (Abeam) • Buffer • Substrate • SIRT1 • NAD • DTT • DMSO Réference 34869 (Honeywell Riedel-de-Haen)
A solution of exactly 2.28% (w/V) activator (resveratrol (Sigma Aldrich, ref.R5010) and sagerinic acid prepared according to example 5.1.) is made in DMSO. Dilute to 1:250 in the DTT buffer solution.
Preparation of the enzyme solution: Make the following additions to 3 separate wells:
• 1. To the SIRT1 enzyme solution wells, add: • 25 μl of undiluted activator solution (2.28% solution) in a well as activator control (AC) • 25 μl of DTT-free buffer in a well as an enzyme control (EC) • 25 μl of diluted activator solution as assay (S) • 2. In another well, add 50 μl of DTT-free buffer as a blank control (without enzyme). • 3. Mix well and incubate the plaque for 5 minutes at 37 °C
Preparation of the substrate: After incubation, make the following additions to each well:
Mix and incubate at 37 °C for 30-60 min.
Mix well and incubate for 10 min at 37 °C, protected from light.
Read the fluorescence (Ex/Em=400/505 nm).
The activation of sirtuin-1 by sagerinic acid was compared with that of resveratrol as a reference molecule.

In assay [4] the test system is Collagenase. Put plainly: Collagenase activity kit (Sigma Aldrich MAK293, FALGPA substrate), anti-collagenase activity. It is filed as biochemical. As to conditions: vs reference molecule hamamelitannin. Here is the method:
A collagenase activity analysis kit (Sigma Aldrich MAK293) is used. The kit allows to screen collagenase inhibitors by measuring collagenase activity using a synthetic peptide (FALGPA) that mimics the structure of the collagen.
• Solutions of the kit: Reference MAK293-1KT (Sigma Aldrich) • Collagenase buffer (MAK293A-KC) • Collagenase solution (MAK293B-KC) • Collagenase substrate (MAK293C-KC) • Pharmethyl 96° ethyl alcohol, Reference 11371014 (Cristalco) • Purified water
A solution is made of exactly 1% (w/V) hamamelitannin (Extrasynthesis ref. 0958) in ethyl alcohol.
A solution of exactly 1% (w/V) sagerinic acid (prepared according to example 5.1.) is made in purified water.
as §1
• After addition, stir quickly by hand • Place in an oven at 37 °C for 30 minutes • Add 1.6 mL of purified water. Mix well. • Read the DO: Sample against blank, spectrophotometer at 345 nm.
The anti-collagenase activity of sagerinic acid was compared with that of hamamelitannin as a reference molecule.
In absolute values: Y=[(DOBlank 2−DOTest)−(DOBlank 1−DOcontrol)]/(DOBlank 1−DOcontrol)]×100

In the case of `O=C1O[C@H]([C@@H](O)CO)C(O)=C1O` [Ascorbic acid, ascorbic acid, reference compound], the “Activity (elimination of DPPH free radical)” value in assay [1] is reported as 5.26 arbitrary dimensionless unit.

As to `O=C(O[C@H](Cc1ccc(O)c(O)c1)C(=O)O)C1C(c2ccc(O)c(O)c2)C(C(=O)O[C@H](Cc2ccc(O)c(O)c2)C(=O)O)C1c1ccc(O)c(O)c1` (stereo partly shown) [Sagerinic acid], the “Activity (elimination of DPPH free radical)” value in assay [1] is recorded as 9.70 arbitrary dimensionless unit. Also, the “effect in eliminating free radicals relative to ascorbic acid” value in assay [1] (vs ascorbic acid) was “almost twice the effect of ascorbic acid”. Also, in assay [2], the “protein deglycating activity (in words)” value is recorded as “good protein deglycating activity” and the “Activity (protein deglycating activity)” value is on record as 16.78 arbitrary dimensionless unit. Also, in assay [3], the “effect on sirtuin activation (in words)” value is recorded as “good effect on sirtuin activation” and the “Activity (activation of sirtuin-1)” value is listed as 26.56 arbitrary dimensionless unit. Besides, the “inhibitory effect on proteases (collagenases) relative to hamamelitannin” value in assay [4] is given as “more than 2 times”.

In the case of `Cc1sc[n+](CC(=O)c2ccccc2)c1C` [Alagebrium, reference compound], the “Activity (protein deglycating activity)” value in assay [2] is reported as 28.79 arbitrary dimensionless unit.

With `Oc1ccc(C=Cc2cc(O)cc(O)c2)cc1` [Resveratrol, resveratrol, reference compound], the “Activity (activation of sirtuin-1)” value in assay [3] is listed as 80.54 arbitrary dimensionless unit.
